From US20110159019A1, “2,4-DIAMINOPYRIMIDINE COMPOUND” (priority 2008, published 2011)

Target: T1, Cytochrome P450 (CYP3A4) (Homo sapiens, UniProt P08684)
T1 construct: human liver microsome (0.1 mg protein/mL); from tissue; host or cells: human liver microsomes
Assay: Measurement of cytochrome P450 (CYP3A4) enzyme inhibition activity in human liver microsome (inhibition tests I and II, midazolam substrate)
Assay type: in vitro ADME
Details: for I (%) Remaining Rate I: inhibition test I: 5 μM test compound, 2 μM midazolam, human liver microsome, 37° C. 20 minutes, no preincubation; for II (%) Remaining Rate II: inhibition test II: 5 μM test compound preincubated 30 minutes with human liver microsome and NADPH, then 2 μM midazolam 20 minutes, relative to test I
Procedure: Test Method 3: Measurement of Cytochrome P450 (CYP3A4) Enzyme Inhibition Activity i) Inhibition Test I (Calculation of Remaining Rate I)
Using a 96-well plate, 2 μM of a substrate (midazolam), 5 μM of a test compound, and human liver microsome (0.1 mg protein/mL) were incubated at 37° C. for 20 minutes in a total amount of 150 μL of a 100 mM phosphate buffer (pH 7.4) containing 0.1 mM EDTA and 1 mM NADPH. Then, the reaction was stopped by adding 130 μl of an aqueous solution containing 80% acetonitrile. Thereafter, the samples were analyzed by LC/MS/MS, and the remaining rates I were calculated using the following equation 1.
Remaining Rate I(%)=Ai,I/Ao,I×100 (Equation 1)
Ai, I=Amount of produced metabolite after reaction in the presence of the test compound in the inhibition test I Ao, I=Amount of produced metabolite after reaction in the absence of the test compound in the inhibition test I ii) Inhibition Test II (Calculation of Remaining Rate II)
Using a 96-well plate, 5 μM of a test compound and human liver microsome (0.1 mg protein/mL) were incubated at 37° C. for 30 minutes in a total amount of 145 μL of a 100 mM phosphate buffer (pH=7.4) containing 0.1 mM EDTA and 1 mM NADPH. Then, 2 μM of midazolam as the substrate was added thereto at a total amount of 150 μL of and incubated at 37° C. for 20 minutes. After the incubation, the reaction was stopped by adding 130 μL of an aqueous solution containing 80% acetonitrile. Thereafter, the samples were analyzed by LC/MS/MS, and the remaining rate II was calculated using the following equation 2.
Remaining Rate II(%)=Ai,II/Ao,II/(Ai,I/Ao,I)×100 (Equation 2)
Ai, II=Amount of produced metabolite after reaction in the presence of the test compound in the inhibition test II […]=Amount of produced metabolite after reaction in the absence of the test compound in the inhibition test II […]
Ex represents No. of the Example Compounds as described below.

T1 sequence (P08684 whole entry): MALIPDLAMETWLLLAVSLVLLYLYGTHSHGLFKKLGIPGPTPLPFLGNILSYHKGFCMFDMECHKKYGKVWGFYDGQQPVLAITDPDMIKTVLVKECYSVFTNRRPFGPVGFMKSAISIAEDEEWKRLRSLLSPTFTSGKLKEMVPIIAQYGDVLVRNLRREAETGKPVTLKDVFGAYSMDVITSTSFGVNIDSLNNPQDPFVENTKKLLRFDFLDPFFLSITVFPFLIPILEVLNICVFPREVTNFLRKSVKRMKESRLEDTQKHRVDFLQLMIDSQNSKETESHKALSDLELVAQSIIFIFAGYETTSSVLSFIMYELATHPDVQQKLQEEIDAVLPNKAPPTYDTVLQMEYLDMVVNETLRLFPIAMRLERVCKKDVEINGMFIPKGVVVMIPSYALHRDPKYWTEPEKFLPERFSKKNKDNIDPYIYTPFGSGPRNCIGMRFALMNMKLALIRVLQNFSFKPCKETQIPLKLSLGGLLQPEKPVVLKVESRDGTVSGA

Structure (SMILES)	I (%) Remaining Rate I [%]	II (%) Remaining Rate II [%]
COc1ccccc1CNc1ncc(C#N)c(NC[C@]23CC4C[C@H](C2)[C@@H](N[C@H]2CC[C@H](O)CC2)[C@@H](C4)C3)n1 (relative stereo) [Example 62]	87	81
CSc1ccccc1CNc1ncc(C#N)c(NC[C@]23CC4C[C@H](C2)[C@@H](NC2CCC(O)CC2)[C@@H](C4)C3)n1 (relative stereo) [Example 68, rel-4-[({(1S,3R,4S,5S)-4-[(4-hydroxycyclohexyl)amino]adamantan-1-yl}methyl)amino]-2-{[2-(methylsulfanyl)benzyl]amino}pyrimidine-5-carbonitrile]	82	90
COCCN1CCC(N[C@@H]2[C@@H]3CC4C[C@H]2C[C@@](CNc2nc(NCc5ccccc5Cl)ncc2C#N)(C4)C3)CC1 (relative stereo) [Example 210]	77	94
N#Cc1cnc(NCc2ccccc2Cl)nc1NC[C@]12CC3C[C@H](C1)[C@@H](NC1CCN(CCF)CC1)[C@@H](C3)C2 (relative stereo) [Example 212]	81	85
N#Cc1cnc(NCc2ccccc2Cl)nc1NC[C@]12CC3C[C@H](C1)[C@@H](NCC1CCN(CCO)CC1)[C@@H](C3)C2 (relative stereo) [Example 216]	92	90
N#Cc1cnc(NCc2ccccc2Cl)nc1NC[C@]12CC3C[C@H](C1)[C@@H](N[C@H]1CC[C@@H](NCCO)CC1)[C@@H](C3)C2 (relative stereo) [Example 220, rel-2-[(2-chlorobenzyl)amino]-4-({[(1R,3S,4R,5R)-4-({cis-4-[(2-hydroxyethyl)amino]cyclohexyl}amino)adamantan-1-yl]methyl}amino)pyrimidine-5-carbonitrile]	82	85
CSc1ccccc1CNc1ncc(C#N)c(NC[C@]23CC4C[C@H](C2)C(NC[C@H]2CC[C@H](O)CC2)[C@@H](C4)C3)n1 (relative stereo) [Example 228]	79	91
COc1ncccc1CNc1ncc(C#N)c(NC[C@]23CC4C[C@H](C2)C(N[C@H]2CC[C@H](CO)CC2)[C@@H](C4)C3)n1 (relative stereo) [Example 232]	88	94
N#Cc1cnc(NCc2ccccc2Cl)nc1NC[C@]12CC3C[C@H](C1)[C@@H](NC1CCC(N4CCC[C@@H]4CO)CC1)[C@@H](C3)C2 (relative stereo) [Example 238]	75	81
CN1CCC(N[C@@H]2[C@@H]3CC4C[C@H]2C[C@@](CNc2nc(NCc5ccccc5Cl)ncc2C#N)(C4)C3)CC1 (relative stereo) [Example 248]	88	82
COc1ncccc1CNc1ncc(C#N)c(NC[C@]23CC4C[C@H](C2)[C@@H](NC2CCC(O)CC2)[C@@H](C4)C3)n1 (relative stereo) [Example 252]	85	80
CSc1ncccc1CNc1ncc(C#N)c(NC[C@]23CC4C[C@H](C2)[C@@H](NC2CCC(O)CC2)[C@@H](C4)C3)n1 (relative stereo) [Example 258]	88	90
N#Cc1cnc(NCc2ccccc2Cl)nc1NC[C@]12CC3C[C@H](C1)[C@@H](NC1CCN(C4CCOCC4)CC1)[C@@H](C3)C2 (relative stereo) [Example 266]	83	99
CC(=O)N1CCC(N[C@H]2CC[C@@H](N[C@@H]3[C@@H]4CC5C[C@H]3C[C@@](CNc3nc(NCc6ccccc6Cl)ncc3C#N)(C5)C4)CC2)CC1 (relative stereo) [Example 281, rel-4-({[(1R,3S,4R,5R)-4-({cis-4-[(1-acetylpiperidin-4-yl)amino]cyclohexyl}amino)adamantan-1-yl]methyl}amino)-2-[(2-chlorobenzyl)amino]pyrimidine-5-carbonitrile]	89	83
N#Cc1cnc(NCc2ccccc2Cl)nc1NC[C@]12CC3C[C@H](C1)[C@@H](N[C@H]1CC[C@@H](NC4CCOCC4)CC1)[C@@H](C3)C2 (relative stereo) [Example 282]	81	91
CSc1ccccc1CNc1ncc(C#N)c(NC[C@]23CC4C[C@H](C2)[C@@H](NC2CCNCC2)[C@@H](C4)C3)n1 (relative stereo) [Example 290]	85	88
CC1(N)CCC(N[C@@H]2[C@@H]3CC4C[C@H]2C[C@@](CNc2nc(NCc5ccccc5Cl)ncc2C#N)(C4)C3)CC1 (relative stereo) [Example 314]	85	84
CNC1CCC(N[C@@H]2[C@@H]3CC4C[C@H]2C[C@@](CNc2nc(NCc5ccccc5Cl)ncc2C#N)(C4)C3)CC1 (relative stereo) [Example 316]	85	84
N#Cc1cnc(NCc2ccccc2OC(F)(F)F)nc1NC[C@]12CC3C[C@H](C1)[C@@H](NCC1CCNCC1)[C@@H](C3)C2 (relative stereo) [Example 329]	92	95
CSc1ccccc1CNc1ncc(C#N)c(NC[C@]23CC4C[C@H](C2)[C@@H](NC[C@H]2CC[C@H](CO)CC2)[C@@H](C4)C3)n1 (relative stereo) [Example 339]	78	94
COc1ncccc1CNc1ncc(C#N)c(NC[C@]23CC4C[C@H](C2)[C@@H](NC[C@H]2CC[C@H](CO)CC2)[C@@H](C4)C3)n1 (relative stereo) [Example 343]	78	91
COc1ncccc1CNc1ncc(C#N)c(NC[C@]23CC4C[C@H](C2)[C@@H](NC[C@H]2CC[C@H](O)CC2)[C@@H](C4)C3)n1 (relative stereo) [Example 345]	94	81
COc1ccccc1CNc1ncc(C#N)c(NC[C@]23CC4C[C@H](C2)[C@@H](NCC[C@@H](O)CO)[C@@H](C4)C3)n1 (relative stereo) [Example 352]	94	81
C[C@]1(O)CC[C@H](CN[C@@H]2[C@@H]3CC4C[C@H]2C[C@@](CNc2nc(NCc5ccccc5Cl)ncc2C#N)(C4)C3)CC1 (relative stereo) [Example 370]	81	85
COc1ccccc1CNc1ncc(C#N)c(NC[C@]23CC4C[C@H](C2)[C@@H](NC2CCC(C)(O)CC2)[C@@H](C4)C3)n1 (single isomer, unassigned) [Example 119]	77	80
N#Cc1cnc(NCc2ccccc2Cl)nc1NC[C@]12CC3C[C@H](C1)[C@@H](NC1CCC(O)CC1)[C@@H](C3)C2 (stereo partly drawn) [Example 95]	84	81
N#Cc1cnc(NCc2ccccc2Cl)nc1NC[C@]12CC3C[C@H](C1)[C@@H](NC1CCN(CCO)CC1)[C@@H](C3)C2 [Example 209]	79	92
CSc1ccccc1CNc1ncc(C#N)c(NC[C@]23CC4C[C@H](C2)C(NC[C@H]2CC[C@H](CO)CC2)[C@@H](C4)C3)n1 (stereo partly drawn) [Example 229]	80	95
CCN1CCC(N[C@@H]2[C@@H]3CC4C[C@H]2C[C@@](CNc2nc(NCc5ccccc5Cl)ncc2C#N)(C4)C3)CC1 [Example 249]	82	83
N#Cc1cnc(NCc2cnccc2Cl)nc1NC[C@]12CC3C[C@H](C1)[C@@H](NC1CCC(O)CC1)[C@@H](C3)C2 (stereo partly drawn) [Example 251]	75	85
